Measured values published in the supplement of paper PMC10307832.

Columns and labels:
Experiment in all cases: relative viability (nuclei count vs DMSO), 5 days (fraction); higher = more cells survive
Motesanib = compound: CC1(C)CNc2cc(NC(=O)c3cccnc3NCc3ccncc3)ccc21 [Motesanib]
Procedure, shortened: (§1)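 Acceptance criteria were a control CV below 25% and at least one doubling per plate. Lung cancer cell lines in 1536-well plates got five library-drug doses (not always all listed) √10 apart by pinning and were left 5 days with no medium change. Viability divides treated-well nuclei by vehicle-well nuclei and is the median across plates. Nuclei were counted by MetaXpress from 4× Hoechst images.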

[1] = compound: C[C@@]1(C(=O)Nc2ccc(F)nc2)CCCN1c1nc(Nc2cc(C3CC3)n[nH]2)c2cccn2n1
Procedure, shortened: as §1

Motesanib + Navitoclax = compound: CC1(C)CNc2cc(NC(=O)c3cccnc3NCc3ccncc3)ccc21 [Motesanib] + CC1(C)CCC(c2ccc(Cl)cc2)=C(CN2CCN(c3ccc(C(=O)NS(=O)(=O)c4ccc(N[C@H](CCN5CCOCC5)CSc5ccccc5)c(S(=O)(=O)C(F)(F)F)c4)cc3)CC2)C1 [Navitoclax] (partner 0.5 µM)
Procedure, shortened: (§2)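 For relative viability, nuclei counts in treated wells were divided by those in vehicle wells. Lung cancer cell lines had been pin-tool dosed in 1536-well plates the day after seeding and cultured for 5 days, then fixed and stained in one step (final 0.05% Triton X-100, 1% formaldehyde, 1 ug/ml Hoechst) and imaged at 4×. Doses were one drug alone or a fixed anchor-drug dose plus five library-drug doses (not always all listed) in √10 steps, and values are duplicate-plate medians.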

Motesanib + Foretinib = compound: CC1(C)CNc2cc(NC(=O)c3cccnc3NCc3ccncc3)ccc21 [Motesanib] + COc1cc2c(Oc3ccc(NC(=O)C4(C(=O)Nc5ccc(F)cc5)CC4)cc3F)ccnc2cc1OCCCN1CCOCC1 [Foretinib] (partner 0.25 µM)
Procedure, shortened: as §2

Row | Cell Line | relative viability (Motesanib; 0.01 µM) | relative viability (Motesanib; 0.03162 µM) | relative viability (Motesanib; 0.1 µM) | relative viability (Motesanib; 0.3162 µM) | relative viability (Motesanib; 1 µM) | relative viability ([1]; 0.04 µM) | relative viability ([1]; 0.1265 µM) | relative viability ([1]; 0.4 µM) | relative viability ([1]; 1.265 µM) | relative viability (Motesanib + Navitoclax; first compound 0.01 µM) | relative viability (Motesanib + Navitoclax; first compound 0.03162 µM) | relative viability (Motesanib + Navitoclax; first compound 0.1 µM) | relative viability (Motesanib + Navitoclax; first compound 0.3162 µM) | relative viability (Motesanib + Navitoclax; first compound 1 µM) | relative viability (Motesanib + Foretinib; first compound 0.01 µM) | relative viability (Motesanib + Foretinib; first compound 0.03162 µM) | relative viability (Motesanib + Foretinib; first compound 0.1 µM) | relative viability (Motesanib + Foretinib; first compound 0.3162 µM) | relative viability (Motesanib + Foretinib; first compound 1 µM)
1 | BEN | 0.902 | 0.964 | 0.927 | 0.998 | 1.19 | 1.09 | 0.959 | 0.935 | 0.929 | 0.0507 | 0.0585 | 0.0627 | 0.0938 | 0.0672 | 0.627 | 0.55 | 0.739 | 0.572 | 0.992
2 | NCI-H1666 | 1.04 | 0.965 | 0.976 | 0.99 | 1.08 | 0.932 | 0.83 | 0.773 | 0.753 | 0.947 | 0.979 | 0.99 | 1.05 | 0.88 | 0.979 | 0.956 | 0.947 | 1.03 | 1.01
3 | LC-2-ad | 0.992 | 0.974 | 1.01 | 1.07 | 0.981 | 0.89 | 0.845 | 0.752 | 0.625 | 0.405 | 0.381 | 0.522 | 0.402 | 0.4 | 0.875 | 0.988 | 0.893 | 0.984 | 1.02
4 | SK-LU-1 | 0.979 | 1.05 | 1.12 | 1.16 | 1.14 | 0.979 | 0.938 | 0.854 | 0.918 | 0.611 | 0.695 | 0.925 | 0.919 | 1.13 | 0.941 | 0.831 | 0.846 | 0.841 | 0.906
5 | ChaGo-K-1 | 0.973 | 0.931 | 0.932 | 0.999 | 1.04 | 0.955 | 0.826 | 0.899 | 0.914 |  | 0.691 | 0.862 | 1.03 | 1.21 | 0.933 | 0.894 | 0.861 | 1.1 | 1.01
6 | COR-L 105 | 1.05 | 0.875 | 0.905 | 0.957 | 0.997 | 1.01 | 0.662 | 0.781 | 0.681 | 1.01 | 0.805 | 0.853 | 0.818 | 0.851 | 1.2 | 1.03 | 1.16 | 0.821 | 1.42
7 | NCI-H1975 | 0.876 | 0.914 | 0.996 | 0.995 | 0.98 | 0.943 | 0.981 | 0.649 | 0.754 | 1.11 | 1.12 | 1.05 | 1.11 | 1.26 | 0.978 | 0.9 | 0.908 | 0.898 | 0.899
8 | Calu-6 | 1 | 0.98 | 1 | 1.05 | 0.987 | 1.11 | 0.948 | 0.884 | 0.844 | 0.877 | 0.748 | 0.852 | 0.758 | 0.76 | 0.953 | 0.921 | 0.851 | 0.884 | 0.826
9 | NCI-H1993 | 0.993 | 0.941 | 0.977 | 0.963 | 1.06 | 0.732 | 0.696 | 0.649 | 0.686 | 1.15 | 0.882 | 0.912 | 0.921 | 0.802 | 0.861 | 0.829 | 0.812 | 0.777 | 0.881
10 | RERF-LC-KJ | 0.899 | 0.981 | 1 | 0.952 | 1.01 | 0.937 | 0.797 | 0.828 | 0.838 | 0.705 | 1.01 | 1.29 | 0.811 | 0.877 | 0.876 | 0.866 | 0.848 | 0.864 | 0.892
11 | NCI-H23 | 1.02 | 0.915 | 0.758 | 1.08 | 1.04 | 0.788 | 0.501 | 0.523 | 0.553 | 0.901 | 0.552 |  | 0.779 | 0.826 | 0.952 | 0.718 | 0.892 | 1.38 | 0.933
12 | HCC-366 | 1.04 | 1.01 | 0.991 | 1.04 | 1.07 | 1 | 0.98 | 1.03 | 0.753 | 0.917 | 0.975 | 0.972 | 0.998 | 1.19 | 0.955 | 0.932 | 0.952 | 0.883 | 1.02
13 | EMC-BAC-2 | 0.964 | 1.01 | 0.987 | 1.05 | 0.95 | 0.848 | 0.766 | 0.642 | 0.593 | 1.18 | 1.15 | 1.22 | 1.19 | 1.13 | 1.01 | 1.06 | 1.1 | 1.05 | 1.03
14 | NCI-H2405 | 0.676 | 0.853 | 0.975 | 1.06 | 1.01 | 0.917 | 0.816 | 0.739 | 0.671 |  | 0.863 | 0.856 | 0.892 | 0.965 |  | 1.01 | 1.06 | 1.07 | 1.08
15 | NCI-H1944 | 0.946 | 0.961 | 0.914 | 1.05 | 0.989 | 0.768 | 0.75 | 0.63 | 0.663 | 1.06 | 1.03 | 1.07 | 1.04 | 1.15 | 0.959 | 0.916 | 0.861 | 0.967 | 0.988
16 | EPLC-272H | 0.918 | 1.04 | 0.761 | 1.04 | 0.976 | 1.04 | 0.645 | 0.744 | 0.764 | 1.16 | 0.905 | 1.3 | 1.04 | 1.26 | 0.659 | 0.744 |  | 0.663 | 0.799
17 | EBC-1 | 1.01 | 0.927 | 1.01 | 1.03 | 0.954 | 1.01 | 0.772 | 0.769 | 0.664 | 0.48 | 0.419 | 0.377 | 0.47 | 0.417 | 0.1 | 0.0945 | 0.109 | 0.111 | 0.132
